Where two headings read alike, the source gives them in different places.
Key:
Assay in all cases: biochemical
SRPK1 = SRPK1 (Homo sapiens, UniProt Q96SB4)
PHKG2 = target: T1, PHKG2 (Homo sapiens, UniProt P15735)
T1 sequence (P15735 1-406): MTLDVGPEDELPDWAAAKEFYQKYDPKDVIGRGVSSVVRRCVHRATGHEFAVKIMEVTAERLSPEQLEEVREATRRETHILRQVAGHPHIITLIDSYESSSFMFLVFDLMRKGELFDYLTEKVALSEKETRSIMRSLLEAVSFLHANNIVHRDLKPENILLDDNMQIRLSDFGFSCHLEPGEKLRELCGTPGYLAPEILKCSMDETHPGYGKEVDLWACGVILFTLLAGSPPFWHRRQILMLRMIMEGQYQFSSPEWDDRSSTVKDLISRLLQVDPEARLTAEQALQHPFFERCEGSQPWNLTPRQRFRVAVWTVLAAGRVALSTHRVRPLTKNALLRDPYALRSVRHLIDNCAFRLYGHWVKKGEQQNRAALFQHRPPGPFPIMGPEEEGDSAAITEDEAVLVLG

p38a = p38a (Homo sapiens, UniProt Q16539)
Sequence of p38a (Q16539 whole entry): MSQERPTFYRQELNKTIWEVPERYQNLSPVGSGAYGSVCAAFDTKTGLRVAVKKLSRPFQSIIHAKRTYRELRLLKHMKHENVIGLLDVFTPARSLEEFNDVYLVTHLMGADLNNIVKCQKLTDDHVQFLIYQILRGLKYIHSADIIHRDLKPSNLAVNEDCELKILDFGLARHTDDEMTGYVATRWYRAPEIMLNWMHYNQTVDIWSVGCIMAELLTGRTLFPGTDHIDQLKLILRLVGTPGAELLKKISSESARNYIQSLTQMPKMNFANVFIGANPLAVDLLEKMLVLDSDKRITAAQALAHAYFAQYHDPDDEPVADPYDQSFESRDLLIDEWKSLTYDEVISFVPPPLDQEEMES

ULK3 = target: T2, ULK3 (Homo sapiens, UniProt Q6PHR2)
T2 sequence (Q6PHR2 1-472): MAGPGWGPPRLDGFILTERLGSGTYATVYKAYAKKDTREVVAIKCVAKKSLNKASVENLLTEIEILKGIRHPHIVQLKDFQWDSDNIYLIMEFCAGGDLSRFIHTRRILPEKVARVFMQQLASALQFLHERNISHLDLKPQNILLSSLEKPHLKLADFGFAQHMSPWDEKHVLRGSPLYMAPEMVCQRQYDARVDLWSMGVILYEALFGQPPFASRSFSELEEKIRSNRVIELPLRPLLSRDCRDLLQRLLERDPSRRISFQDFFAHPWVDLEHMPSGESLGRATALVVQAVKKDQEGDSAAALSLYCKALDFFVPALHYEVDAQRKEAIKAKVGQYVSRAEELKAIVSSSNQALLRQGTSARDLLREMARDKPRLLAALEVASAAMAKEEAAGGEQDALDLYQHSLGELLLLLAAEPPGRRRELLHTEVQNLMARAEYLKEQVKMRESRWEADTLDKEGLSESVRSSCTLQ

VRK1 = target: T3, VRK1 (Homo sapiens, UniProt Q99986)
T3 sequence (Q99986 1-396): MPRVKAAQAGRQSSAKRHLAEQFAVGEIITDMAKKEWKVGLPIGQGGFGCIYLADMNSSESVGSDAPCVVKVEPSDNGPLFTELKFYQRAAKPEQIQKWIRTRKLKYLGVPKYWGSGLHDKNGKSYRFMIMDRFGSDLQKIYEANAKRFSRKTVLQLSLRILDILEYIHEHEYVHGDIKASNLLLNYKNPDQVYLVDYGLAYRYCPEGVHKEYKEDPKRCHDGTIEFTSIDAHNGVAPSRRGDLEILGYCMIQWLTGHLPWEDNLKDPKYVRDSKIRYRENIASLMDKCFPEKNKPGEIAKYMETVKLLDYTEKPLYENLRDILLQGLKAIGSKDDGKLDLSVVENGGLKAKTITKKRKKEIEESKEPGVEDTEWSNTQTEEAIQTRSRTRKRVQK

FGFR1 = FGFR1 (Homo sapiens, UniProt P11362)
Sequence of FGFR1 (P11362 whole entry): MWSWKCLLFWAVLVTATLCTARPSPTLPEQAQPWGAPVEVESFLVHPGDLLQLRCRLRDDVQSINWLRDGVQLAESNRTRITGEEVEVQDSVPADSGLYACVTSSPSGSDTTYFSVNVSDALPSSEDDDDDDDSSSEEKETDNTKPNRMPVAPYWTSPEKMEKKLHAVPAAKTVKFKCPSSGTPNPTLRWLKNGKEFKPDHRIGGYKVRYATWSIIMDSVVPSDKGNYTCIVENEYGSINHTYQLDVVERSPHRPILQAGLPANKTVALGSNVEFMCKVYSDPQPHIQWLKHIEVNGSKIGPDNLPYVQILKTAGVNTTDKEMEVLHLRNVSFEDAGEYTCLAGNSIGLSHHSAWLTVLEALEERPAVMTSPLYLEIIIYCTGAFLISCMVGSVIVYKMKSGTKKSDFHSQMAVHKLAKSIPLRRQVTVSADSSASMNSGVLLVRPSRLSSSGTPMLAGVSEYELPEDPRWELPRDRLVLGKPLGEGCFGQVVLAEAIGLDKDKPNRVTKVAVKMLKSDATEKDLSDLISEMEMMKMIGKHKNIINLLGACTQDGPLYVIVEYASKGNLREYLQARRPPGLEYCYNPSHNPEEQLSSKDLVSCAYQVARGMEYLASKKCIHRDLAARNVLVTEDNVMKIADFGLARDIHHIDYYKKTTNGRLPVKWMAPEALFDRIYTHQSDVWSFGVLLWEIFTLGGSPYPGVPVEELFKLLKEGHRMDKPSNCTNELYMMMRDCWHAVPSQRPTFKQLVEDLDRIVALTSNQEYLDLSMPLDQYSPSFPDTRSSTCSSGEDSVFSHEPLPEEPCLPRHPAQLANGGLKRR

CaMKK2 = CaMKK2 (Homo sapiens, UniProt Q96RR4)
Sequence of CaMKK2 (Q96RR4 whole entry): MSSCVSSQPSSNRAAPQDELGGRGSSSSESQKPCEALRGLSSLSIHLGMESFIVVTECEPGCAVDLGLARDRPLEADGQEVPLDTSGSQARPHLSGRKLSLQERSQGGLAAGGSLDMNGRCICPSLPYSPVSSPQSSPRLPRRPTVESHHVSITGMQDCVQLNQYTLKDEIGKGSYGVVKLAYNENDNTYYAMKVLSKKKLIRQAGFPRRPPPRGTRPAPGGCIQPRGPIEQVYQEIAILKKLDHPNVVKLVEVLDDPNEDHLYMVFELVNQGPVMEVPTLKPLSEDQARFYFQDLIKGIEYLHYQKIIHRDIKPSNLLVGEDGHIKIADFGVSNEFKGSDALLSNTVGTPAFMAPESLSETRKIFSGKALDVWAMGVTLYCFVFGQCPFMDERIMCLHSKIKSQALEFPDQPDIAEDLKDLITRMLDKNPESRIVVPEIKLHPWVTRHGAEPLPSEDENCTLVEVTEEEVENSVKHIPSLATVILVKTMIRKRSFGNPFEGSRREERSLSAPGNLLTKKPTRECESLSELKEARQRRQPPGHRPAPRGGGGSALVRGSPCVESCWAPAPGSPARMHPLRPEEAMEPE

AKT3 = AKT3 (Homo sapiens, UniProt Q9Y243)
Sequence of AKT3 (Q9Y243 whole entry): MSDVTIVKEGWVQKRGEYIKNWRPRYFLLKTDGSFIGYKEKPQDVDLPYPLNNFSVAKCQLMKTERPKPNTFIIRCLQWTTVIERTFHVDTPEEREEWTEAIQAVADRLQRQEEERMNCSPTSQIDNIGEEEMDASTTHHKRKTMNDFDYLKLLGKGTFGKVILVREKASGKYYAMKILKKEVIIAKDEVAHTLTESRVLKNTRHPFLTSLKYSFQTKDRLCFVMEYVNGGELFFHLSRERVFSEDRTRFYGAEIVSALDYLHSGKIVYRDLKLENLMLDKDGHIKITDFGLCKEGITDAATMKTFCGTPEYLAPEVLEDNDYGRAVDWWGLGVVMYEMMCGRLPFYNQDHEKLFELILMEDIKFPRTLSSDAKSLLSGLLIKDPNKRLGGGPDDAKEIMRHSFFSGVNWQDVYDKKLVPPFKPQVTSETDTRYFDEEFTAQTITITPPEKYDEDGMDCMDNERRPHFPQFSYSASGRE

STLK3 = STLK3 (Homo sapiens, UniProt Q9UEW8)
NEK2 = target: T4, NEK2 (Homo sapiens, UniProt P51955)
T4 sequence (P51955 1-445): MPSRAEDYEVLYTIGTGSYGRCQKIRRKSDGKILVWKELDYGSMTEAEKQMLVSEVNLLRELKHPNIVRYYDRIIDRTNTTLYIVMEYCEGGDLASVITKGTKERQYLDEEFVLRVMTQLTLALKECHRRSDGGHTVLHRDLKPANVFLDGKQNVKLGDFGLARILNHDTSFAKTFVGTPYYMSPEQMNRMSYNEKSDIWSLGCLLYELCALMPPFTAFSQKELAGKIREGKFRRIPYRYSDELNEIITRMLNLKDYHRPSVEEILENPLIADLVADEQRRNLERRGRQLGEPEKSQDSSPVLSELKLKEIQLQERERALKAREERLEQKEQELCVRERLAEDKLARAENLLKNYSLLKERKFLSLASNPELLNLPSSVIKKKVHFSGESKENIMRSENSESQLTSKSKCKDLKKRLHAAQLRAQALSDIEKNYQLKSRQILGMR

FECH = target: T5, FECH (Homo sapiens, UniProt P22830)
T5 sequence (P22830 1-423): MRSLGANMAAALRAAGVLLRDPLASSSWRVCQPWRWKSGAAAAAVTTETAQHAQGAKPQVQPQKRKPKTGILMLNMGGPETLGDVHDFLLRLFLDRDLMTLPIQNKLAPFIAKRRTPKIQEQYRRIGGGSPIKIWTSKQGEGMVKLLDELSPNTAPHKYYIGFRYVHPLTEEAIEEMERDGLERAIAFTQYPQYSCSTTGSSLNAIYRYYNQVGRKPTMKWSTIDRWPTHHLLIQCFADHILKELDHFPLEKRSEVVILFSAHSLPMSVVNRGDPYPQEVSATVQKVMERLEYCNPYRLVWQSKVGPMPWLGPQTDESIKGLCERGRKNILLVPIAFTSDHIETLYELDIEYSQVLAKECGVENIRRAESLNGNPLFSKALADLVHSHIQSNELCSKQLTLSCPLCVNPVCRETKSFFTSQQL

Sequence of SRPK1 (Q96SB4 whole entry): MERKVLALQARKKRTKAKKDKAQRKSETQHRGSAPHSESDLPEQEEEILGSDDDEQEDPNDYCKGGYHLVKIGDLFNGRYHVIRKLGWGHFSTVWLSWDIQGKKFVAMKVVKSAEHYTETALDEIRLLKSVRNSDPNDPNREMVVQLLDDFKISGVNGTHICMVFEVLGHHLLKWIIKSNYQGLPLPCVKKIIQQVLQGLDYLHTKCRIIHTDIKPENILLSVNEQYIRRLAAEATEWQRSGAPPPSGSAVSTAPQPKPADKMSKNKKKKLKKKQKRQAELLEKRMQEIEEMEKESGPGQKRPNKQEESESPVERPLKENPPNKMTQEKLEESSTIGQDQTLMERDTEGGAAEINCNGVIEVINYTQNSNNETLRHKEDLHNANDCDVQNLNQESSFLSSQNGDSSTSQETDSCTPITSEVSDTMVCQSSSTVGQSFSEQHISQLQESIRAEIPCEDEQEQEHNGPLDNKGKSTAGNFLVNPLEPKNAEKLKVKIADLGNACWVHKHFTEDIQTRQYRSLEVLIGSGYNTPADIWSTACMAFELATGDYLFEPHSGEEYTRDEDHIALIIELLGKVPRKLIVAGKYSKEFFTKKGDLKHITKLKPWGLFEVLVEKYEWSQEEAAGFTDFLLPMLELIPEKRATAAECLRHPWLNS

CNc1ncc2cc(-c3ccc(-c4cccc(C)n4)cc3Cl)c(=O)n(CC3OCC(N)CO3)c2n1 (stereo not shown) [compound 2, G-5555]
dTm G-5555 (2) (SRPK1; 10 µM, binder): -0.4 °C
dTm G-5555 (2) (PHKG2; 10 µM, binder): 0.6 °C
dTm G-5555 (2) (p38a; 10 µM, binder): 1.4 °C
dTm G-5555 (2) (ULK3; 10 µM, binder): 8.0 °C
dTm G-5555 (2) (VRK1; 10 µM, binder): -0.1 °C
dTm G-5555 (2) (FGFR1; 10 µM, binder): -0.1 °C
dTm G-5555 (2) (CaMKK2; 10 µM, binder): 1.1 °C
dTm G-5555 (2) (AKT3; 10 µM, binder): 1.4 °C
dTm G-5555 (2) (STLK3; 10 µM, binder): 0.6 °C

CNc1ncc2cc(-c3cc(Br)ccc3Cl)c(=O)n(CCCCN)c2n1 [compound 6, 8-(4-Aminobutyl)-6-(5-bromo-2-chlorophenyl)-2-(methylamino)pyrido[2,3-d]pyrimidin-7(8H)-one]
ΔTm at 10 µM (SRPK1; read-out: dTm 6): 0.1 °C
ΔTm at 10 µM (PHKG2; read-out: dTm 6): 0.8 °C
ΔTm at 10 µM (NEK2; read-out: dTm 6): 2 °C
ΔTm at 10 µM (p38a; read-out: dTm 6): 5.6 °C
ΔTm at 10 µM (VRK1; read-out: dTm 6): 0.3 °C
ΔTm at 10 µM (FGFR1; read-out: dTm 6): 3 °C
ΔTm at 10 µM (CaMKK2; read-out: dTm 6): -0.2 °C
ΔTm at 10 µM (AKT3; read-out: dTm 6): 0.2 °C
ΔTm at 10 µM (STLK3; read-out: dTm 6): 0.2 °C
ΔTm at 10 µM (FECH; read-out: dTm 6): 0.2 °C

CNc1ncc2cc(-c3cc(F)ccc3F)c(=O)n(CCCCN)c2n1 [compound 5, 8-(4-Aminobutyl)-6-(2,5-difluorophenyl)-2-(methylamino)pyrido[2,3-d]pyrimidin-7(8H)-one]
ΔTm at 10 µM (SRPK1; read-out: dTm MR22 (5)): 0.3 °C
ΔTm at 10 µM (PHKG2; read-out: dTm MR22 (5)): 1.4 °C
ΔTm at 10 µM (NEK2; read-out: dTm MR22 (5)): 1 °C
ΔTm at 10 µM (p38a; read-out: dTm MR22 (5)): -0.6 °C
ΔTm at 10 µM (ULK3; read-out: dTm MR22 (5)): 1.9 °C
ΔTm at 10 µM (VRK1; read-out: dTm MR22 (5)): 0.4 °C
ΔTm at 10 µM (FGFR1; read-out: dTm MR22 (5)): 3.4 °C
ΔTm at 10 µM (CaMKK2; read-out: dTm MR22 (5)): -0.1 °C
ΔTm at 10 µM (AKT3; read-out: dTm MR22 (5)): 0.5 °C
ΔTm at 10 µM (STLK3; read-out: dTm MR22 (5)): 2.1 °C
ΔTm at 10 µM (FECH; read-out: dTm MR22 (5)): 0.3 °C

CNc1ncc2cc(-c3ccccc3Cl)c(=O)n(CCCCN)c2n1 [compound 4, 8-(4-Aminobutyl)-6-(2-chlorophenyl)-2-(methylamino)pyrido[2,3-d]pyrimidin-7(8H)-one]
ΔTm at 10 µM (SRPK1; read-out: dTm MR21 (4)): 0.6 °C
ΔTm at 10 µM (PHKG2; read-out: dTm MR21 (4)): 0.3 °C
ΔTm at 10 µM (NEK2; read-out: dTm MR21 (4)): 0.5 °C
ΔTm at 10 µM (p38a; read-out: dTm MR21 (4)): 8.8 °C
ΔTm at 10 µM (ULK3; read-out: dTm MR21 (4)): 2.4 °C
ΔTm at 10 µM (VRK1; read-out: dTm MR21 (4)): -0.4 °C
ΔTm at 10 µM (FGFR1; read-out: dTm MR21 (4)): 3.3 °C
ΔTm at 10 µM (CaMKK2; read-out: dTm MR21 (4)): 0.6 °C
ΔTm at 10 µM (AKT3; read-out: dTm MR21 (4)): 0.7 °C
ΔTm at 10 µM (STLK3; read-out: dTm MR21 (4)): -1.1 °C
ΔTm at 10 µM (FECH; read-out: dTm MR21 (4)): -1.1 °C

CNc1ncc2cc(-c3cc(Br)ccc3Cl)c(=O)n(C[C@H]3OC[C@H](N)CO3)c2n1 [compound 7, 8-(((2r,5r)-5-Amino-1,3-dioxan-2-yl)methyl)-6-(5-bromo-2-chlorophenyl)-2-(methylamino)pyrido[2,3-d]pyrimidin-7(8H)-one]
ΔTm at 10 µM (SRPK1; read-out: dTm 7): 0.1 °C
ΔTm at 10 µM (PHKG2; read-out: dTm 7): 0.3 °C
ΔTm at 10 µM (NEK2; read-out: dTm 7): 2.1 °C
ΔTm at 10 µM (p38a; read-out: dTm 7): 5.3 °C
ΔTm at 10 µM (ULK3; read-out: dTm 7): 0.6 °C
ΔTm at 10 µM (VRK1; read-out: dTm 7): 0.5 °C
ΔTm at 10 µM (FGFR1; read-out: dTm 7): 2.9 °C
ΔTm at 10 µM (CaMKK2; read-out: dTm 7): 0.5 °C
ΔTm at 10 µM (AKT3; read-out: dTm 7): 0 °C
ΔTm at 10 µM (STLK3; read-out: dTm 7): 0 °C
ΔTm at 10 µM (FECH; read-out: dTm 7): -1.1 °C
